Measured values reported in patent US20120282377A1, “Methods and Formulations for Inhibiting Degradation of Photosensitive Sweeteners and Sweetener Enhancers” (priority 2011, published 2012).
Several values for one entry are separate records, joined by “and”; a condition that tells them apart may be missing. Equal values may be shown once.

Tests used:
[1] = Odor analysis of UV and light exposed monatin samples by 6 panelists; type: physicochemical; parameters: key to Odor analysis: (+) = no odor or minor odor; (−) = distinct or unpleasant odor; conditions: for Odor analysis: 30 PPM in lemon lime matrix pH 3.35, panelists 1-6
Protocol: A survey of odor and visual analysis of the UV and light exposed samples of the monatin samples was conducted by 6 panelists. Samples for analysis were solution of monatin in a lemon lime matrix without flavor at pH 3.35 (30 PPM monatin) exposed to visible for three days or UV light for 24 hours (equivalent of four days sun exposure).

[2] = Monatin stability in lemon-lime beverage with or without EMIQ, UV irradiation (Example 4); type: physicochemical
Protocol: The polyphenol enzymatically-modified isoquercitrin (EMIQ) was used to stabilize monatin (31 mg/L) in a lemon lime carbonated beverage formulation contained in either a regular (clear, colorless) PET bottle or a dark-colored PET bottle. The level of EMIQ in the samples was 7.5 PPM. A control formulation was used that contained no EMIQ. The samples were exposed to UV light or ambient indoor laboratory fluorescent lighting for up to 72 hours. UV light was administered in a UV chamber at 40° C. with approximately 400 Langley per 6 hours of exposure. The results listed below indicate that the monatin was very unstable in the control formulations with only 1.4% monatin remaining after 24 hours exposure to UV light. EMIQ provided protection from degradation of the monatin. When packaged in a dark-colored PET bottle approximately 89% monatin remained in the formulation after exposure to UV light for 24 hours. When exposed to ambient indoor laboratory lighting for 72 hours over 90% monatin remained in both clear and dark PET bottles containing the EMIQ polyphenol. All analyses were done by HPLC/MS.

[3] = Monatin stability in PET bottle types with or without additives, 1600 Langley UV exposure (Example 5); type: physicochemical; conditions: 1600 Langley (24 hour at 40° C.); for Monatin remaining after UV exposure (ppm): control 43.3 ppm
Protocol: The stability of monatin in regular PET bottles, PET bottles with UV barrier (colorless or green) and with or without Chinese Green Tea polyphenol or α-cyclodextrin was evaluated. Each sample was irradiated with an irradiation energy of 1600 Langley exposure (24 hour exposure at 40° C. in Atlas SunTest XLS+chamber, which was equivalent to four day of sun exposure in Arizona). A control formulation was used that contained monatin at 43.3 ppm. The results were analyzed by LC-MS.

[4] = cited from earlier work
[5] = dark-colored PET, with EMIQ 7.5 PPM, UV exp. 0 hours
[6] = dark-colored PET, with EMIQ 7.5 PPM, UV exp. 6 hours
[7] = dark-colored PET, with EMIQ 7.5 PPM, UV exp. 12 hours
[8] = dark-colored PET, with EMIQ 7.5 PPM, UV exp. 18 hours
[9] = dark-colored PET, with EMIQ 7.5 PPM, UV exp. 24 hours
[10] = regular PET, no EMIQ, UV exp. 0 hours
[11] = regular PET, no EMIQ, UV exp. 6 hours
[12] = regular PET, no EMIQ, UV exp. 12 hours
[13] = regular PET, no EMIQ, UV exp. 18 hours
[14] = regular PET, no EMIQ, UV exp. 24 hours
[15] = regular PET, with EMIQ 7.5 PPM, UV exp. 0 hours
[16] = regular PET, with EMIQ 7.5 PPM, UV exp. 6 hours
[17] = regular PET, with EMIQ 7.5 PPM, UV exp. 12 hours
[18] = regular PET, with EMIQ 7.5 PPM, UV exp. 18 hours
[19] = regular PET, with EMIQ 7.5 PPM, UV exp. 24 hours
[20] = Green PET with UV barrier (0.12%), additives none
[21] = PET with UV barrier, Chinese Green Tea Polyphenol TP>40 (149 ppm)
[22] = PET with UV barrier, additives none
[23] = PET with UV barrier, α-cyclodextrin (729 ppm)

Odor analysis ([1]; Dark-colored PET bottle, UV light 24 hours): − and +
Odor analysis ([1]; Dark-colored PET bottle, visible light three days): − and +
Odor analysis ([1]; PET with UV barrier, UV light 24 hours): − and +
Odor analysis ([1]; PET with UV barrier, visible light three days): +
Odor analysis ([1]; Regular PET, UV light 24 hours): − and +
Odor analysis ([1]; Regular PET, visible light three days): +
odor change after UV exposure ([1]; samples in the dark-colored PET bottles): no or minimal odor change
% Monatin remaining [2, 5]: 100%
Conc. of Monatin [2, 5]: 30930 ng/mL
% Monatin remaining [2, 6]: 92.4% and 92.3%
Conc. of Monatin [2, 6]: 28590 ng/mL and 28530 ng/mL
% Monatin remaining [2, 7]: 90.7% and 90.9%
Conc. of Monatin [2, 7]: 28050 ng/mL and 28100 ng/mL
% Monatin remaining [2, 8]: 90.7% and 90.5%
Conc. of Monatin [2, 8]: 28040 ng/mL and 28000 ng/mL
% Monatin remaining [2, 9]: 89.0% and 89.3%
Conc. of Monatin [2, 9]: 27510 ng/mL and 27620 ng/mL
% Monatin remaining ([2]; dark-colored PET, with EMIQ 7.5 PPM, UV exp. 24 hours, listed as monatin): approximately 89%
% Monatin remaining [2, 10]: 100%
Conc. of Monatin [2, 10]: 30760 ng/mL and 30790 ng/mL
% Monatin remaining [2, 11]: 68.6%
Conc. of Monatin [2, 11]: 21130 ng/mL and 21110 ng/mL
% Monatin remaining [2, 12]: 9.4% and 9.3%
Conc. of Monatin [2, 12]: 2890 ng/mL and 2870 ng/mL
% Monatin remaining [2, 13]: 1.7% and 1.6%
Conc. of Monatin [2, 13]: 540 ng/mL and 510 ng/mL
% Monatin remaining [2, 14]: 1.4%
Conc. of Monatin [2, 14]: 430 ng/mL and 440 ng/mL
% Monatin remaining [2, 15]: 100%
Conc. of Monatin [2, 15]: 30930 ng/mL
% Monatin remaining [2, 16]: 83.1% and 82.9%
Conc. of Monatin [2, 16]: 25710 ng/mL and 25620 ng/mL
% Monatin remaining [2, 17]: 69.3%
Conc. of Monatin [2, 17]: 21420 ng/mL and 21440 ng/mL
% Monatin remaining [2, 18]: 52.0% and 51.7%
Conc. of Monatin [2, 18]: 16070 ng/mL and 15990 ng/mL
% Monatin remaining [2, 19]: 34.9% and 34.8%
Conc. of Monatin [2, 19]: 10800 ng/mL and 10760 ng/mL
Monatin remaining after UV exposure (%) [3, 20]: 65.6%
Monatin remaining after UV exposure (ppm) [3, 20]: 28.4 ppm
Monatin remaining after UV exposure (%) [3, 21]: 77.6%
Monatin remaining after UV exposure (ppm) [3, 21]: 33.6 ppm
Monatin remaining after UV exposure (%) [3, 22]: 51.0%
Monatin remaining after UV exposure (ppm) [3, 22]: 22.1 ppm
Monatin remaining after UV exposure (%) [3, 23]: 33.3%
Monatin remaining after UV exposure (ppm) [3, 23]: 14.4 ppm
Monatin remaining after UV exposure (%) ([3]; Regular PET, additives none): 13.4%
Monatin remaining after UV exposure (ppm) ([3]; Regular PET, additives none): 5.8 ppm
Structure (SMILES): NC(CC(O)(Cc1c[nH]c2ccccc12)C(=O)O)C(=O)O (stereo not shown) [Monatin, 2-amino-4-carboxy-4-hydroxy-5-(3-indolyl)-pentanoic acid]
degradation when exposed to UV light [4]: degrade to malodorous degradation products
